Holding throughout (test): kinome screen (33PanQinase)
Common to all, as to type: biochemical

For one assay, the target named is T1, CDK2/CycA2 (Homo sapiens, UniProt P24941).
T1 construct: purchased Reaction Biology Europe GmbH (formerly ProQinase)
On the procedure:
(§1) The Kinome Screening was performed by Reaction Biology Europe GmbH (http://reactionbiology.com; Freiburg i. Br., Germany).

The next assay addresses T2, EPHA8 (Homo sapiens, UniProt P29322).
T2 construct: purchased Reaction Biology Europe GmbH (formerly ProQinase)
T2 sequence (P29322 28-1005): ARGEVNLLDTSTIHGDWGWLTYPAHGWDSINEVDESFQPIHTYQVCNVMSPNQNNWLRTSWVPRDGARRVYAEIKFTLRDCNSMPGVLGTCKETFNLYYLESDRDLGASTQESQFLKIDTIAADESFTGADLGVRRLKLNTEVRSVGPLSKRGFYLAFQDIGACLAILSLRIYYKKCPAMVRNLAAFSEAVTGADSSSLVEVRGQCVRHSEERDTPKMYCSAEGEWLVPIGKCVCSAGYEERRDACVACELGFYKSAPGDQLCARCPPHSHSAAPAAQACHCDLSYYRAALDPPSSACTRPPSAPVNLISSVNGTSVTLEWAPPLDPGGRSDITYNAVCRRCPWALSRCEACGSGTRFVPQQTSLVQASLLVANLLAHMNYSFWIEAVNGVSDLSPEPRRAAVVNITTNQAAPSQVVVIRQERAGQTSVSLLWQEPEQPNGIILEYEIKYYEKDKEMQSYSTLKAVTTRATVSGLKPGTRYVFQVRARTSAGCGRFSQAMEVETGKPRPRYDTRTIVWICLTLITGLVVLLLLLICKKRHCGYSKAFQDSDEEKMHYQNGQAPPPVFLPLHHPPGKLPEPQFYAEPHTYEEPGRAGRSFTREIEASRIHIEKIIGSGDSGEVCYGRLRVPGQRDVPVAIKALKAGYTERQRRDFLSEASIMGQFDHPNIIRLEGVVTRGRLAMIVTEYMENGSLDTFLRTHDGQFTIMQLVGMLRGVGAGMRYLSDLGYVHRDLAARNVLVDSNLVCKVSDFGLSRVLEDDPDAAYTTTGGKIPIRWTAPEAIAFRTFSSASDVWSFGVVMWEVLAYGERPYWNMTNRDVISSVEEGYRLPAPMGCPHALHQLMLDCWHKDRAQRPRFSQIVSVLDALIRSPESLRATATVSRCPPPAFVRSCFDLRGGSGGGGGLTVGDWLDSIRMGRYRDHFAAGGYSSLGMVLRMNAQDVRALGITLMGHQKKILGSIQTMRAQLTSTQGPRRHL
Here is the method: as §1

For the next assay, the target named is T3, FAK (Homo sapiens, UniProt Q05397).
T3 construct: purchased Reaction Biology Europe GmbH (formerly ProQinase)
T3 sequence (Q05397 whole entry): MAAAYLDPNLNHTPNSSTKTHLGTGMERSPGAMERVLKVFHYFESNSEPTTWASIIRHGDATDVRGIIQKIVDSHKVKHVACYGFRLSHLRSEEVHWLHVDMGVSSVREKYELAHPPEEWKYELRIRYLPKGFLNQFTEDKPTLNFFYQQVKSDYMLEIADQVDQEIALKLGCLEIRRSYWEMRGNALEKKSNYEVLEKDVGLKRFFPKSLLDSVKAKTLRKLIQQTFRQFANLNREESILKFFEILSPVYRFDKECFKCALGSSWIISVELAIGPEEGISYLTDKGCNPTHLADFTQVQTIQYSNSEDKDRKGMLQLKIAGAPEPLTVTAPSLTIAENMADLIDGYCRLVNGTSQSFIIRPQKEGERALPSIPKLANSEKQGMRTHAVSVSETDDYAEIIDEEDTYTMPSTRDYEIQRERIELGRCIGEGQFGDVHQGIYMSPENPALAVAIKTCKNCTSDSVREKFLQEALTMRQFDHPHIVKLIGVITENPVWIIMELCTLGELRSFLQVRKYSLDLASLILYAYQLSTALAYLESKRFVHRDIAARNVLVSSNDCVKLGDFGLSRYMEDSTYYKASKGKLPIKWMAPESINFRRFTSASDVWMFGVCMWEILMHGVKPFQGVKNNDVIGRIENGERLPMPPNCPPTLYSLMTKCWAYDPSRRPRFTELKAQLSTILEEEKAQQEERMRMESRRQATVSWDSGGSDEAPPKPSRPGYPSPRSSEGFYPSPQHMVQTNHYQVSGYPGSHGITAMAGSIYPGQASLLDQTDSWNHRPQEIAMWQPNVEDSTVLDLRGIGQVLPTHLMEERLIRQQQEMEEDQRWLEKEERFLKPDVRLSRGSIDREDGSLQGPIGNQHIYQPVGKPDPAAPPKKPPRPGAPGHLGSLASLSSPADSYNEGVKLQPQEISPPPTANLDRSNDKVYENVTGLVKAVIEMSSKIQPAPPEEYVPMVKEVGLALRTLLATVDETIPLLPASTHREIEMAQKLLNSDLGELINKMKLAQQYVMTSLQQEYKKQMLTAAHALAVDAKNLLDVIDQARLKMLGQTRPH
Here is the method:
as §1

In another assay the target is T4, IRAK1 (Homo sapiens, UniProt P51617).
T4 construct: purchased Reaction Biology Europe GmbH (formerly ProQinase)
T4 sequence (P51617 whole entry): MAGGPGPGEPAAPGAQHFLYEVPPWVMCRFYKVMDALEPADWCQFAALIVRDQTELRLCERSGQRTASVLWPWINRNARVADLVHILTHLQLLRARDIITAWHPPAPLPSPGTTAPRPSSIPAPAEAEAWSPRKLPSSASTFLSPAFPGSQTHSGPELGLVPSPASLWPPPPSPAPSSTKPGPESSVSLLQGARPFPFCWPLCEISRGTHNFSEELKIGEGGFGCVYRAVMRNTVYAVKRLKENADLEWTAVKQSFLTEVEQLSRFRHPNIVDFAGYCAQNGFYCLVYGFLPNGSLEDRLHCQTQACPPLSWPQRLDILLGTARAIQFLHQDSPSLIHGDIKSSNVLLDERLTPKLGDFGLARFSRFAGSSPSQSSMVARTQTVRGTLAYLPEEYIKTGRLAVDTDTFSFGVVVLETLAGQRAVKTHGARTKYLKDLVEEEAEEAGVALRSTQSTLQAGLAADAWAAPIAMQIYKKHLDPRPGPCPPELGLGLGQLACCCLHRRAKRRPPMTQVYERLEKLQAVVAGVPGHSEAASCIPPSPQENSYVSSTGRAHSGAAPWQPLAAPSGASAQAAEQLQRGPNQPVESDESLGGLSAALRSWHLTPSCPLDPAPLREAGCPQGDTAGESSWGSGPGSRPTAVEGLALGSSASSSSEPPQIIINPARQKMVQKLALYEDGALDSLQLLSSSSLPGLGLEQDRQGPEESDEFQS
On the procedure:
as §1

The target of another assay is T5, ITK (Homo sapiens, UniProt Q08881).
T5 construct: purchased Reaction Biology Europe GmbH (formerly ProQinase)
T5 sequence (Q08881 1-620): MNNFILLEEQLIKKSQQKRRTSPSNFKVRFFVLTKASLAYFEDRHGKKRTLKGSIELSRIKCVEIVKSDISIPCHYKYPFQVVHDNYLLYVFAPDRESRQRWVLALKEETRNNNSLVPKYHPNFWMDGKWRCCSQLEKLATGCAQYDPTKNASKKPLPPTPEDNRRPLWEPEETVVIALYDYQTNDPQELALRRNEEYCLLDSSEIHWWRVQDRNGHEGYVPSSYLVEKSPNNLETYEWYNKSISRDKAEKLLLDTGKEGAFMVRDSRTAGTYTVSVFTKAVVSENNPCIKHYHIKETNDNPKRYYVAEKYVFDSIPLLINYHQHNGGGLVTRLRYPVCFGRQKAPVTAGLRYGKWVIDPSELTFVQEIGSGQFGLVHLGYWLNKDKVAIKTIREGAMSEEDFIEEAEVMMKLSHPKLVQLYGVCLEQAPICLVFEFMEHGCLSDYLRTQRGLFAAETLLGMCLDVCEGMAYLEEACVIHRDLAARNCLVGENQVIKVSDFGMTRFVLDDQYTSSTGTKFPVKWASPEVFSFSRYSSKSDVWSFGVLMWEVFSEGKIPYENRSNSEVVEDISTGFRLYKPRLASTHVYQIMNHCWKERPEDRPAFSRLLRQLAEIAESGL
Here is the method: as §1

In the next assay the target is T6, MATK (Homo sapiens, UniProt P42679).
T6 construct: purchased Reaction Biology Europe GmbH (formerly ProQinase)
T6 sequence (P42679 1-507): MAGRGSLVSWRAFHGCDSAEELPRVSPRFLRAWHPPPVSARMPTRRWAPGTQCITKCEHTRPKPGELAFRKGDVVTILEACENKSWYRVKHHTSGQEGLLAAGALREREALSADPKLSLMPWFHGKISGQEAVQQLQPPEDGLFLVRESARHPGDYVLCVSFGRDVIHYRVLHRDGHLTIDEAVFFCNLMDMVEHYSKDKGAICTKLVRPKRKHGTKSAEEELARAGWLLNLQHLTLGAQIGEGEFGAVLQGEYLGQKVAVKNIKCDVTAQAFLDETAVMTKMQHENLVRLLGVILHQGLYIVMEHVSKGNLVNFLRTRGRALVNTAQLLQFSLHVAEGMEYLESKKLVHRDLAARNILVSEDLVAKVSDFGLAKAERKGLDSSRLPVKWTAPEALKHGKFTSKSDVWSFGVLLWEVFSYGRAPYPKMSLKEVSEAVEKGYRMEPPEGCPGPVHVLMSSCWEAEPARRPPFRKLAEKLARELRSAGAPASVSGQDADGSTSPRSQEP
On the procedure:
as §1

The next assay has as its target T7, PKCβ2 (Homo sapiens, UniProt P05771).
T7 construct: purchased Reaction Biology Europe GmbH (formerly ProQinase)
Here is the method: as §1

A further assay deals with T8, PLK1 (Homo sapiens, UniProt P53350).
T8 construct: purchased Reaction Biology Europe GmbH (formerly ProQinase)
T8 sequence (P53350 whole entry): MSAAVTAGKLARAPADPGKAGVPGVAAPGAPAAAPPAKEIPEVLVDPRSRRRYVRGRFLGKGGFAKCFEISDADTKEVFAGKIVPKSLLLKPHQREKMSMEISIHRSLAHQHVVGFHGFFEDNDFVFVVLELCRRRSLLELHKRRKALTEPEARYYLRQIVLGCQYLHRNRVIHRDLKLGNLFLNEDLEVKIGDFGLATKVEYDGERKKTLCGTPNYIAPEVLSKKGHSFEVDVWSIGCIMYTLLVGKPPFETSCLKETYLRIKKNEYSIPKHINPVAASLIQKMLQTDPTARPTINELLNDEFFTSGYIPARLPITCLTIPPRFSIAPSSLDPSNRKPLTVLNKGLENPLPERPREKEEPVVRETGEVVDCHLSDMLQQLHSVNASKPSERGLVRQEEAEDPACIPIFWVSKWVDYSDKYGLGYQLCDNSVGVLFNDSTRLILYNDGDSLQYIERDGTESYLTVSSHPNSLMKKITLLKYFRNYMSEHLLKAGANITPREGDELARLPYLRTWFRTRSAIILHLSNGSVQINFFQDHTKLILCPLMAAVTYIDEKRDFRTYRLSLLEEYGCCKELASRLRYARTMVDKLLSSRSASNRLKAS
Here is the method:
as §1

The target in another assay is T9, RAF1 YDYD (Homo sapiens, UniProt P04049, Y340D/Y341D).
T9 construct: purchased Reaction Biology Europe GmbH (formerly ProQinase)
T9 sequence (P04049 306-648 Y340D/Y341D limits assumed): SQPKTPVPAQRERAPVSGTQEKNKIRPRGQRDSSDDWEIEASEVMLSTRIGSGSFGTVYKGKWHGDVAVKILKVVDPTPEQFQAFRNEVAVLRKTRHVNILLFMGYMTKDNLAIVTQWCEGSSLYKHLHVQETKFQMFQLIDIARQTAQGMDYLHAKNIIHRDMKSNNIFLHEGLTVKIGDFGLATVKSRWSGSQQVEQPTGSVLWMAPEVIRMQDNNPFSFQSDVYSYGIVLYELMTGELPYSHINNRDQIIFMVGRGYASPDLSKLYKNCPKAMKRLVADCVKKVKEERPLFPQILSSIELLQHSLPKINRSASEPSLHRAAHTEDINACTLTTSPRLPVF
On the procedure:
as §1

A further assay has as its target T10, SRPK1 (Homo sapiens, UniProt Q96SB4).
T10 construct: purchased Reaction Biology Europe GmbH (formerly ProQinase)
On the procedure:
as §1

Another assay addresses T11, TSF1 (Homo sapiens, UniProt O75716).
T11 construct: purchased Reaction Biology Europe GmbH (formerly ProQinase)
On the procedure:
as §1

T7 sequence (P05771 1-673 isoform P05771-2): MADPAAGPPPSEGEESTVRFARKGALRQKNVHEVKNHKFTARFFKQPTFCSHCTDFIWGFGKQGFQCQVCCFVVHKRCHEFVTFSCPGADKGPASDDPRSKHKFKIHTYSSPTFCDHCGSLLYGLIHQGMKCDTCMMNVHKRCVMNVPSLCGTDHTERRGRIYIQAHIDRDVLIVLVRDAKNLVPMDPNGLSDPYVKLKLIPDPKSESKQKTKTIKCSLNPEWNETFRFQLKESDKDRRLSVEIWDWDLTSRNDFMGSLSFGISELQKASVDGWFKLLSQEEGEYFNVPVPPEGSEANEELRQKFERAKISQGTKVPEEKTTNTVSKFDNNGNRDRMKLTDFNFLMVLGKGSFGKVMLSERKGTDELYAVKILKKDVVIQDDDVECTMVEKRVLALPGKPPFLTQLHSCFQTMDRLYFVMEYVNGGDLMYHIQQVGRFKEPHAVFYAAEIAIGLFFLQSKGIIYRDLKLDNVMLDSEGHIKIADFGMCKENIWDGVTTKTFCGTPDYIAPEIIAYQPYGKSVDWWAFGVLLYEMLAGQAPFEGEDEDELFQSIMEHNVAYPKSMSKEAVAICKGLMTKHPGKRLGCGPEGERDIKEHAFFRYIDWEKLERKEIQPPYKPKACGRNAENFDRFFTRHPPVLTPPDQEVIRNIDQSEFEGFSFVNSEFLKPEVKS
T11 sequence (O75716 whole entry): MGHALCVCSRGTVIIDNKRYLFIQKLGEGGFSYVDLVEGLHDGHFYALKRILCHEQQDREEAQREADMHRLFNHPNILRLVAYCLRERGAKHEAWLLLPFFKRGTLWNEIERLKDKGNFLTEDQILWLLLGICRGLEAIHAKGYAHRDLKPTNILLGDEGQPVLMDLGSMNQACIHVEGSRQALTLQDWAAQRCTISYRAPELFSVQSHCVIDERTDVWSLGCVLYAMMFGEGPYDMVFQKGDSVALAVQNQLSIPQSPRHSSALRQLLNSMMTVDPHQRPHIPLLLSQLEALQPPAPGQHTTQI
T10 sequence (Q96SB4 whole entry): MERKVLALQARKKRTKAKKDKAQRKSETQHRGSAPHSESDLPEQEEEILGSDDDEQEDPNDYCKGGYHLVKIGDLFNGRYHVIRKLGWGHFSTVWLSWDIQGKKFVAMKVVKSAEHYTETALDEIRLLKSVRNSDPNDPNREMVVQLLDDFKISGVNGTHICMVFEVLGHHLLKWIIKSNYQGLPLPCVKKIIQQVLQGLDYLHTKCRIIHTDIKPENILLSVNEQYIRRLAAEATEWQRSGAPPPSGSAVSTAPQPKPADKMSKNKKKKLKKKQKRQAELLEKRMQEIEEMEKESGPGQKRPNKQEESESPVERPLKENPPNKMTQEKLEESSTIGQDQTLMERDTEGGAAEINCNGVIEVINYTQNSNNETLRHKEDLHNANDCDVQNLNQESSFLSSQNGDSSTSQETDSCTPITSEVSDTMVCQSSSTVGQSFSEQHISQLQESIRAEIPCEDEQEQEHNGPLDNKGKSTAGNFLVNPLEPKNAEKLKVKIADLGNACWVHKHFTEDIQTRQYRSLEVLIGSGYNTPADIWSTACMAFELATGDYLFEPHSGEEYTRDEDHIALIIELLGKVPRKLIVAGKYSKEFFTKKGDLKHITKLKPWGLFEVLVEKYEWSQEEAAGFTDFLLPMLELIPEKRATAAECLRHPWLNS

Regarding `COc1ccnc2[nH]cc(-c3cc(N)nc(N)c3)c12` [meriolin 16], the residual kinase activity on CDK2/CycA2 (0.03 µM) is given as 18 % of control; at CDK2/CycA2 (0.3 µM) it was 2 % of control; on EPHA8 (0.03 µM), 119 % of control; on EPHA8 (0.3 µM), 107 % of control; at FAK (0.03 µM), 102 % of control; at FAK (0.3 µM), 89 % of control. For the same compound, the residual kinase activity on IRAK1 (0.03 µM) is recorded as 95 % of control; at IRAK1 (0.3 µM), 76 % of control; on ITK (0.03 µM) it was 105 % of control; at ITK (0.3 µM) it was 88 % of control; on MATK (0.03 µM) it was 107 % of control; on MATK (0.3 µM), 90 % of control. The residual kinase activity is 106 % of control on PKCβ2 (0.03 µM); 71 % of control on PKCβ2 (0.3 µM); 95 % of control at PLK1 (0.03 µM); 90 % of control on PLK1 (0.3 µM); 77 % of control at RAF1 YDYD (0.03 µM); 96 % of control on RAF1 YDYD (0.3 µM). Also, the residual kinase activity on SRPK1 (0.03 µM) is reported as 108 % of control; at SRPK1 (0.3 µM), 99 % of control; at TSF1 (0.03 µM) it was 109 % of control; at TSF1 (0.3 µM), 104 % of control.
Take `c1ccc(CNc2cc(-c3c[nH]c4ncccc34)ccn2)cc1` [meriolin 36]: the residual kinase activity is reported as 1 % of control at CDK2/CycA2 (0.3 µM); 2 % of control on CDK2/CycA2 (3 µM); 113 % of control on EPHA8 (0.3 µM); 94 % of control on EPHA8 (3 µM); 85 % of control at FAK (0.3 µM); 60 % of control at FAK (3 µM). For the same compound, the residual kinase activity on IRAK1 (0.3 µM) is 49 % of control; on IRAK1 (3 µM), 9 % of control; on ITK (0.3 µM) it was 77 % of control; at ITK (3 µM) it was 16 % of control; on MATK (0.3 µM), 134 % of control; on MATK (3 µM), 94 % of control. Also, the residual kinase activity on PKCβ2 (0.3 µM) is reported as 51 % of control; on PKCβ2 (3 µM), 11 % of control; on PLK1 (0.3 µM), 100 % of control; on PLK1 (3 µM) it was 66 % of control; on RAF1 YDYD (0.3 µM) it was 67 % of control; on RAF1 YDYD (3 µM), 67 % of control. For the same compound, the residual kinase activity was 110 % of control at SRPK1 (0.3 µM), 70 % of control on SRPK1 (3 µM), 57 % of control on TSF1 (0.3 µM) and 8 % of control on TSF1 (3 µM).

Values taken from publication PMC11167047 (Cell Death Discovery, 2024).
